Data published in PubChem BioAssay AID248 (DTP/NCI, 2004).
“And” between values parts separate entries of the source, which are not always exact repeats. Identical values can stand only once. Toxic doses and inconclusive results are not listed. Cut-off read from the data, not from the text of the source: active = T/C of 150% or more; inactive = T/C below 125%.

System: L1210 leukemia ip in BDF1 mice, survival T/C
Assay: NCI In Vivo Anticancer Drug Screen. Data for tumor model L1210 Leukemia (intraperitoneal) in B6D2F1 (BDF1) mice
Conditions: endpoint: mean survival time, higher = longer survival
Procedure, shortened: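 Transplanted-tumor mice were given test agent; controls received vehicle only. Survival readings from the two groups were divided (treated over control).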

[1] = dose: 100.0 mg/kg/injection, schedule: Q01DX009 (ip), vehicle: saline with Tween-80
[2] = dose: 25.0 mg/kg/injection, schedule: Q01DX009 (ip), vehicle: saline
[3] = dose: 50.0 mg/kg/injection, schedule: Q01DX009 (ip), vehicle: saline
[4] = dose: 100.0 mg/kg/injection, schedule: Q04DX003 (ip), vehicle: saline
[5] = dose: 100.0 mg/kg/injection, schedule: Q01DX001 (ip), vehicle: other
[6] = dose: 200.0 mg/kg/injection, schedule: Q01DX001 (ip), vehicle: other
[7] = dose: 100.0 mg/kg/injection, schedule: Q04DX002 (ip), vehicle: saline
[8] = dose: 200.0 mg/kg/injection, schedule: Q04DX002 (ip), vehicle: saline
[9] = dose: 100.0 mg/kg/injection, schedule: Q01DX009 (ip), vehicle: saline
[10] = dose: 200.0 mg/kg/injection, schedule: Q01DX009 (ip), vehicle: saline
[11] = dose: 150.0 mg/kg/injection, schedule: Q01DX001 (ip), vehicle: saline
[12] = dose: 100.0 mg/kg/injection, schedule: Q01DX001 (ip), vehicle: Klucel (hydroxypropylcellulose) (HPC)
[13] = dose: 200.0 mg/kg/injection, schedule: Q01DX001 (ip), vehicle: Klucel (hydroxypropylcellulose) (HPC)
[14] = dose: 400.0 mg/kg/injection, schedule: Q01DX001 (ip), vehicle: Klucel (hydroxypropylcellulose) (HPC)
[15] = dose: 100.0 mg/kg/injection, schedule: Q01DX001 (ip), vehicle: carboxymethylcellulose (CMC)
[16] = dose: 200.0 mg/kg/injection, schedule: Q01DX001 (ip), vehicle: carboxymethylcellulose (CMC)
[17] = dose: 400.0 mg/kg/injection, schedule: Q01DX001 (ip), vehicle: carboxymethylcellulose (CMC)
[18] = dose: 50.0 mg/kg/injection, schedule: Q01DX001 (ip), vehicle: saline
[19] = dose: 100.0 mg/kg/injection, schedule: Q01DX001 (ip), vehicle: saline
[20] = dose: 200.0 mg/kg/injection, schedule: Q01DX001 (ip), vehicle: saline
[21] = dose: 400.0 mg/kg/injection, schedule: Q01DX001 (ip), vehicle: saline
[22] = dose: 200.0 mg/kg/injection, schedule: Q01DX009 (ip), vehicle: saline with Tween-80
[23] = dose: 100.0 mg/kg/injection, schedule: Q04DX003 (ip), vehicle: saline with Tween-80
[24] = dose: 200.0 mg/kg/injection, schedule: Q04DX003 (ip), vehicle: saline with Tween-80
[25] = dose: 400.0 mg/kg/injection, schedule: Q04DX003 (ip), vehicle: saline with Tween-80

Measured: T/C

COc1ccccc1C1CCCC2C(Oc3ccc([N+](=O)[O-])cc3)OC12 (stereo unspecified)
inactive: dose: 50.0 mg/kg/injection, schedule: Q01DX009 (ip), vehicle: saline with Tween-80 87 % of control | [1] 100 % of control

C[N+](C)(C)CCOC(=O)c1cc(CBr)cc(CBr)c1
inactive: [2] 101 % of control | dose: 25.0 mg/kg/injection, schedule: Q04DX003 (ip), vehicle: saline 98 % of control | [3] 95 % of control | dose: 50.0 mg/kg/injection, schedule: Q04DX003 (ip), vehicle: saline 100 % of control | [4] 102 % of control

O=C1C(=O)c2ccccc2C(O)=C1CCCCCCCCCC[S+](CCO)CCO
inactive: [5] 104 % of control | [6] 101 % of control

S=P(c1ccccc1)(c1ccccc1)c1ccccc1
inactive: dose: 50.0 mg/kg/injection, schedule: Q04DX002 (ip), vehicle: saline 96 % of control | [7] 93 % of control | [8] 96 % of control

CCC(C)(O)C(=O)O (stereo unspecified)
inactive: [7] 114 % of control | [8] 114 % of control

CCCCCCCCN(C(=S)NC(=O)c1ccccc1)c1ccccc1
inactive: dose: 100.0 mg/kg/injection, schedule: Q04DX003 (ip), vehicle: Klucel (hydroxypropylcellulose) (HPC) 93 % of control | dose: 200.0 mg/kg/injection, schedule: Q04DX003 (ip), vehicle: Klucel (hydroxypropylcellulose) (HPC) 89 % of control | dose: 400.0 mg/kg/injection, schedule: Q04DX003 (ip), vehicle: Klucel (hydroxypropylcellulose) (HPC) 91 % of control

N#Cc1nc(N)c(NC2(O)C(=O)Nc3ccccc32)nc1C#N (stereo unspecified)
inactive: dose: 100.0 mg/kg/injection, schedule: Q04DX002 (ip), vehicle: Klucel (hydroxypropylcellulose) (HPC) 97 % of control | dose: 200.0 mg/kg/injection, schedule: Q04DX002 (ip), vehicle: Klucel (hydroxypropylcellulose) (HPC) 105 % of control

CCOC(=O)CCN(C)C
inactive: [9] 104 % of control | [10] 101 % of control | dose: 400.0 mg/kg/injection, schedule: Q01DX009 (ip), vehicle: saline 98 % of control

Cc1c2[n+](cc3ccccc13)C(C)CC(=O)N2 (stereo unspecified)
inactive: dose: 18.75 mg/kg/injection, schedule: Q01DX009 (ip), vehicle: saline 95 % of control | dose: 37.5 mg/kg/injection, schedule: Q01DX009 (ip), vehicle: saline 95 % of control | dose: 37.5 mg/kg/injection, schedule: Q04DX003 (ip), vehicle: saline 97 % of control | dose: 75.0 mg/kg/injection, schedule: Q01DX001 (ip), vehicle: saline 100 % of control | dose: 75.0 mg/kg/injection, schedule: Q01DX009 (ip), vehicle: saline 94 % of control | dose: 75.0 mg/kg/injection, schedule: Q04DX003 (ip), vehicle: saline 101 % of control | [11] 94 % of control | dose: 150.0 mg/kg/injection, schedule: Q04DX003 (ip), vehicle: saline 104 % of control

COC(=O)CCCCCCCCCC(=O)OC
inactive: [12] 100 % of control | dose: 100.0 mg/kg/injection, schedule: Q01DX009 (ip), vehicle: Klucel (hydroxypropylcellulose) (HPC) 97 % of control | [13] 101 % of control | dose: 200.0 mg/kg/injection, schedule: Q01DX009 (ip), vehicle: Klucel (hydroxypropylcellulose) (HPC) 96 % of control | [14] 95 % of control | dose: 400.0 mg/kg/injection, schedule: Q01DX009 (ip), vehicle: Klucel (hydroxypropylcellulose) (HPC) 94 % of control

O=C(OCC1COc2ccccc2O1)C(F)(F)F (stereo unspecified)
inactive: [15] 95 % of control | [16] 93 % of control | [17] 98 % of control

CCC(NC(C)=O)C(=O)O (stereo unspecified)
inactive: [7] 101 % of control | [4] 104 % of control | [8] 90 % of control | dose: 200.0 mg/kg/injection, schedule: Q04DX003 (ip), vehicle: saline 96 % of control | dose: 400.0 mg/kg/injection, schedule: Q04DX002 (ip), vehicle: saline 116 % of control | dose: 400.0 mg/kg/injection, schedule: Q04DX003 (ip), vehicle: saline 95 % of control

O=C(Cc1cc2c(cc1[N+](=O)[O-])OCO2)c1c[nH]c2ccccc12
inactive: [18] 98 % of control | [19] 98 % of control | [20] 95 % of control | [21] 101 % of control

COc1cccc(NC2=CC(=O)C(=O)c3ccccc32)c1
inactive: [5] 88 % of control | [6] 92 % of control | dose: 400.0 mg/kg/injection, schedule: Q01DX001 (ip), vehicle: other 101 % of control

Brc1cscc1-c1cccc2ccccc12
inactive: [1] 86 % of control | [22] 86 % of control

COC(=O)CN(c1ccc(C#N)c2ccccc12)S(=O)(=O)c1ccccc1
inactive: [23] 94 % of control | [24] 96 % of control | [25] 94 % of control

CC(=O)CC(=O)NC(C)CCc1ccccc1 (stereo unspecified)
inactive: [1] 92 % of control | [23] 98 % of control | [22] 92 % of control | [24] 102 % of control | dose: 400.0 mg/kg/injection, schedule: Q01DX009 (ip), vehicle: saline with Tween-80 104 % of control | [25] 98 % of control

OCCN1CC2CCCC1O2 (stereo unspecified)
inactive: [18] 101 % of control | [19] 101 % of control | [20] 103 % of control | [21] 101 % of control

O=c1[nH]c2sccc2c(=O)n1O
inactive: [12] 106 % of control | [13] 97 % of control | [14] 97 % of control

Cc1cc(C)nc(SCC(=O)O)n1
inactive: dose: 50.0 mg/kg/injection, schedule: Q01DX001 (ip), vehicle: carboxymethylcellulose (CMC) 89 % of control | [15] 105 % of control | [16] 96 % of control | [17] 105 % of control

Nc1ccc(OCC(=O)Nc2ccc(S(=O)(=O)F)cc2)cc1
inactive: [19] 101 % of control | [20] 103 % of control

BrCC12CCC1(CBr)COC2 (stereo unspecified)
inactive: [19] 99 % of control | [20] 103 % of control | [21] 101 % of control

COC1OC(CO)C(O)C(O)C1O (stereo unspecified)
inactive: dose: 44.0 mg/kg/injection, schedule: Q01DX001 (ip), vehicle: saline 102 % of control and 105 % of control | [18] 102 % of control | [3] 90 % of control | dose: 66.0 mg/kg/injection, schedule: Q01DX001 (ip), vehicle: saline 96 % of control and 100 % of control | [19] 100 % of control and 107 % of control | [9] 109 % of control | [11] 105 % of control and 107 % of control | [20] 100 % of control | [10] 93 % of control | [21] 111 % of control

O=C(CCCC(=O)N/N=C/c1ccc2c(c1)CCC2)N/N=C/c1ccc2c(c1)CCC2
inactive: [23] 95 % of control | [24] 97 % of control | [25] 90 % of control

CCC(=O)NCC1(c2ccccc2)CCN(CC2COc3ccccc3O2)CC1 (stereo unspecified)
inactive: [2] 108 % of control | [3] 100 % of control | [9] 93 % of control | [4] 102 % of control
